We go through two compounds from US6500820B1, “Pharmaceutical composition for neurotrophic action” (priority 1998, dated 2002).

Test [1] relates to choline acetyltransferase (ChAT). Put plainly: choline acetyltransferase (ChAT) activity in rat septal neurons cultured on rat hippocampal astrocyte feeder layer. It is filed as cell-based. The note with it: for ChAT activity: compound A 10-1000 nM. Here is the method:
This experiment was done by a method reported by Pharmacology of Neurotrophic Factors, Ann. Rev. Pharmacol. Toxicol., Vol.37, pages 239-267, (1997).
Astrocytes were obtained from the new-born Sprague-Dawley (SD) rat hippocampus by trypsin digestion and cultured in a serum-containing medium in a culture flask. The confluent astrocytes were harvested and seeded on 96 well plates at the density of 5×10^4 cells/well and served as the feeder layer for neurons after halting the overgrowth with 10 μM cytosine arabinoside. Neurons were taken from the septal area of E17 fetal SD rats by trypsin digestion and seeded on the astrocyte feeder layer at the density of 7.5×10^4 cells/well in a serum-free medium. On the next day, the compound was added to the culture with or without 3 ng/ml recombinant human NGF (rhNGF) and cultured further for 7 days. Then cells were lysed with 5 mM Tris-HCl (pH 7.4)/0.1% Triton X-100 and choline acetyltransferase (ChAT) activity was measured radiometrically by the method of Fonnum.

The subject of test [2] is CA1 neurons. Put plainly: 10-min forebrain ischemia (4-vessel occlusion) in rats, number of living CA1 pyramidal cells. Conditions: male Wistar rats, 10-min 4 VO; 10 mg/kg orally 1 hr before and 4 hr after ischemia, then once daily for 6 days; counted 7 days after occlusion; P<0.05. The test is classed as in vivo, rat. Here is the method:
Male Wistar rats (Japan Clea Inc., Tokyo, Japan) aged 9 weeks were used. Rats were subjected to 10-min forebrain ischemia using a method reported by Pulsinelli W. A. and Brierley J. B., Stroke, Vol.10, pages 267-272, (1979). Compound A (10 mg/kg) was orally administered 1 hr before and 4 hr after the ischemic operation, and from the next day, it was administered once daily for 6 days.
Rats were sacrificed 7 days after occlusion for histopathological observation. Under deep pentobarbital anesthesia, rats were perfused transcardially with physiological saline solution. The brains were removed, soaked in FAM (formaline:acetic acid:methanol=1:1:8) solution, and embedded in paraffin. Serial coronal sections (6 μm) were cut at the level of the anterior hippocampus, approximately 3.8-4.3 mm posterior to the bregma and stained with hematoxilin and eosin. The number of living pyramidal cells per 250 μm length of CA1 sector were counted under a light microscope. The average of the right and left neuronal densities were defined as the neuronal density for each rat.
Group differences in the number of CA1 pyramidal cells were analyzed using Student t-tests.

Setting [3] is: in the presence of 3 ng/ml rhNGF, cultured 7 days (FIG. 2).
Setting [4] is: without rhNGF, cultured 7 days, rat septal neurons on astrocyte feeder layer (FIG. 1).

On to `Nc1c2c(nc3ccccc13)CCCC2` [tacrine, reference compound], for which the ChAT activity result in test [1] (setting [3]) and in test [1] (setting [4]) was “did not affect ChAT activity” throughout.

Regarding `O=C(CCC1CCN(Cc2ccccc2)CC1)c1ccc2c(c1)NCCCC2.O=C(O)/C=C/C(=O)O` [compound A, 3-[1-(phenylmethyl)-4-piperidinyl]-1-(2,3,4,5-tetrahydro-1H-1-benzazepin-8-yl)-1-propanone fumarate], the “number of CA1 pyramidal cells (survival of CA1 neurons) versus vehicle-treated 4 VO control” value in test [2] was “significantly greater than that of the vehicle-control”. Further, the “low concentration from which neurotrophic action is shown” value in test [1] (ChAT activity in rat septal neurons, with or without rhNGF) came to 10 nm. For the same compound, the ChAT activity result in test [1] (setting [3]) is reported as “markedly elevated ChAT activity”; in test [1] (setting [4]), “apparently increased ChAT activity”.
